Results on two compounds are retold here after patent US5229116A, “Administration of pharmaceutical agents” (priority 1989, dated 1993).

This series is described as follows: In vivo pharmacokinetic studies of dihydropyridines given orally with water, grapefruit juice or orange juice (plasma concentration, GC analysis). As to conditions: human, po, mean; for AUC(0-inf): zero to infinity. Further details: species or system human (healthy subjects, hypertensive patients). The protocol: Hypertensive patients and healthy volunteers were given commercially available formulations of dihydropyridines in the morning after an overnight fast. The tablets were taken either with water, orange juice, or, as a source of flavonoids, 200 ml grapefruit juice. This contains about 150 mg of flavonoids, either as aglycones or glycosides.
The protocols for the five studies are shown on Table 2.
Blood samples for the analysis of the dihydropyridine and the first metabolite were drawn before and at frequent intervals after dose via an indwelling antecubital cannula. Samples were centrifuged and the plasma frozen (-20° C.) until analysis.
The maximum plasma concentration, Cmax, and the corresponding time to reach peak concentration, tmax, were recorded from the individual plasma concentration time curves of the dihydropyridine and its first metabolite. The area from zero to infinity was calculated adding the residual area to the area from zero to last determinable plasma concentration value by using the slope of the log plasma concentration time curve in the 3 to 8 hour interval after dose.

Setting [1] is: plasma, 10 mg, nitrendipine 10 mg tablets, healthy subjects, n = 3, grapefruit juice.
The mark [2] stands for this setting: plasma, 10 mg, nitrendipine 10 mg tablets, healthy subjects, n = 3, water.
Setting [3] is: plasma, felodipine ER tablets, healthy subjects, n = 9, grapefruit juice.
Setting [4] is: plasma, felodipine ER tablets, healthy subjects, n = 9, water.
Setting [5] is: plasma, felodipine plain tablets, healthy subjects, n = 9, grapefruit juice.
Where [6] appears, read: plasma, felodipine plain tablets, healthy subjects, n = 9, water.
Where [7] appears, read: plasma, felodipine plain tablets, patients, n = 6, grapefruit juice.
[8] abbreviates: plasma, felodipine plain tablets, patients, n = 6, orange juice.
Where [9] appears, read: plasma, felodipine plain tablets, patients, n = 6, water.

For `CCOC(=O)C1=C(C)NC(C)=C(C(=O)OC)C1c1cccc([N+](=O)[O-])c1` (stereo not drawn) [Nitrendipine], the Tmax (usually the time from dosing to the highest level) runs as follows: (in vivo, 10 mg, nitrendipine 10 mg tablets, healthy subjects, n = 3, grapefruit juice) 1.3 ± 0.5 h; (in vivo, 10 mg, nitrendipine 10 mg tablets, healthy subjects, n = 3, water) 1.5 h. Also, the concentration under setting [1] peaked (Cmax) at 8.9 ± 4.8 nM and the Cmax (usually the peak of the concentration-time curve) under setting [2] turned out to be 3.7 ± 1.8 nM. Besides, the AUC(0-inf) (usually the area under the concentration-time curve extrapolated to infinity) came to 0.035 ± 0.0195 µM·h under setting [1] and 0.0151 ± 0.0058 µM·h under setting [2].
`CCOC(=O)C1=C(C)NC(C)=C(C(=O)OC)C1c1cccc(Cl)c1Cl` (stereo not drawn) [Felodipine] showed a Cmax under setting [3] of 8.9 ± 3.3 nM; a maximum concentration (Cmax) under setting [4] of 3.4 ± 1.6 nM; a maximum concentration (Cmax) under setting [5] of 16.3 ± 7.1 nM; a Cmax under setting [6] of 6.6 ± 3.6 nM; a Cmax under setting [7] of 28.7 ± 7.6 nM; a Cmax under setting [8] of 16.4 ± 7.8 nM. Besides, the Cmax under setting [9] came out at 13.2 ± 5 nM. The time of peak concentration (Tmax) under setting [3] is 3.2 ± 0.8 h; the Tmax under setting [4] turned out to be 3.4 ± 0.9 h; the Tmax under setting [5] stood at 2.1 ± 0.9 h; the time of peak concentration (Tmax) under setting [6] turned out to be 1.3 ± 0.6 h; the Tmax under setting [7] turned out to be 2.1 ± 0.5 h; the Tmax under setting [8] stood at 1.9 ± 0.1 h. For the same compound, under setting [9], the time to peak (Tmax) worked out at 1.1 ± 0.5 h. For the same compound, the AUC(0-inf) came out at 0.0478 ± 0.0157 µM·h under setting [3]; 0.0274 ± 0.0123 µM·h under setting [4]; 0.065 ± 0.0263 µM·h under setting [5]; 0.0228 ± 0.0106 µM·h under setting [6]; 0.121 ± 0.045 µM·h under setting [7]; 0.0514 ± 0.0222 µM·h under setting [8]. Moreover, under setting [9], the area under the curve AUC(0-inf) came to 0.0484 ± 0.0237 µM·h.
